Consider five compounds from ChEMBL document CHEMBL4840328, “The Phytochemical Scoulerine Inhibits Aurora Kinase Activity to Induce Mitotic and Cytokinetic Defects” (J Nat Prod, 2021).

One may read the IC50 as the point on the concentration scale where inhibition reaches its midpoint. For orientation: EC50 means the concentration at which the effect is half-maximal.

Test [1] concerns HRPE. Description: Induction of cell cycle arrest in human RPE cells expressing MYC-Bcl2 assessed as disorganized NUMA1 at 4 uM for 6 hrs by immunostaining analysis. It counts as functional, cell-based.
The subject of test [2] is HRPE. The experiment in a line: Cytotoxicity against HRPE cells overexpressing MYC-H2BGFP assessed as cell viability measured after 72 hrs by MTT assay. It counts as functional, cell-based. The note with it: Homo sapiens. On the technique in general: Formazan colour is commonly taken as a measure of viable cells.
The test system of test [3] is HRPE. The experiment in a line: Induction of mitotic arrest in HRPE Cells overexpressing MYC at 20 uM by acridine orange staining based fluorescence microscopic analysis. It counts as functional, tissue-based. The note with it: Homo sapiens.
The nature of test [4]: Cytotoxicity against HRPE cells overexpressing MYC assessed as cell viability measured after 72 hrs by MTT assay. It counts as functional, cell-based. The note with it: Homo sapiens.
Test [5] in a line: Cytotoxicity against human HCT116-p53-null cells assessed as cell viability measured after 72 hrs by MTT assay. It counts as functional, cell-based.
The test system of a further test is NCI-H23. The experiment in a line: Cytotoxicity against human NCI-H23 cells harboring MYC assessed as cell viability measured after 72 hrs by MTT assay. It counts as functional, cell-based. The note with it: NCI-H23, 72 h.
Test [6] deals with HRPE. Description: Induction of cell cycle arrest in HRPE cells overexpressing MYC/Bcl2 assessed as centrosome amplification measured after 6 hrs by DAPI staining based analysis. It counts as functional. Particulars: Homo sapiens.
The test system of test [7] is HRPE. Description: Induction of mitotic arrest in HRPE Cells overexpressing MYC assessed as polyploidy at 5 uM by acridine orange staining based fluorescence microscopic analysis. The note with it: Homo sapiens. It counts as functional, tissue-based.
Test [8] relates to HRPE. Description: Induction of mitotic arrest in HRPE Cells overexpressing MYC-Bcl2 measured for 46 to 62 hrs by time-lapse analysis. It counts as functional, tissue-based. Particulars: Homo sapiens, dose 2-4 µM, time 46-62 hrs.
Another test concerns HeLa. Description: Cytotoxicity against human HeLa cells assessed as cell viability measured after 72 hrs by MTT assay. It counts as functional, cell-based.
Test [9] can be described thus: Cytotoxicity against HRPE cells overexpressing MYC/Bcl2 assessed as cell viability measured after 72 hrs by MTT assay. It counts as functional, cell-based. The note with it: Homo sapiens.
Test [10] is described as follows: Induction of mitotic arrest in HRPE Cells overexpressing MYC assessed as polyploidy measured for 48 hrs by acridine orange staining based fluorescence microscopic analysis. It counts as functional, tissue-based, Homo sapiens.
The next test deals with SW480. The experiment in a line: Cytotoxicity against human SW480 cells assessed as cell viability measured after 72 hrs by MTT assay. It counts as functional, cell-based. Particulars: SW480, 72 h.
In test [11] the test system is HRPE. The experiment in a line: Induction of cell cycle arrest in human RPE cells expressing MYC-Bcl2 assessed as disorganized alpha-tubulin at 4 uM for 6 hrs by immunostaining analysis. It counts as functional, cell-based.
Test [12] is described as follows: Cytotoxicity against human wild type p53HCT116 cells assessed as cell viability measured after 72 hrs by MTT assay. It counts as functional, cell-based. The note with it: p53HCT116, 72 h.
Test [13] relates to HRPE. The experiment in a line: Induction of cell cycle arrest in human RPE cells expressing MYC-Bcl2 assessed as foci in colocalized gamma-tubulin at 4 uM for 6 hrs by immunostaining analysis. It counts as functional, cell-based.
A further test concerns A549. Description: Cytotoxicity against human A549 cells assessed as cell viability measured after 72 hrs by MTT assay. Particulars: A549, 72 h. It counts as functional, cell-based.
The nature of test [14]: Induction of mitotic arrest in HRPE Cells overexpressing MYC measured for 24 hrs by acridine orange staining based fluorescence microscopic analysis. It counts as functional, tissue-based, Homo sapiens.
The target in test [15] is Aurora kinase B (Homo sapiens) (UniProt Q96GD4). The experiment in a line: Inhibition of AURKB (unknown origin) in HRPE cells overexpressing MYC/Bcl2 assessed as decrease in H3PS10 fluorescence intensity at 20 uM measured for 6 hrs by immunostaining based fluorescence microscopic analysis. It counts as cell-based.
Sequence of Aurora kinase B (Homo sapiens) (Q96GD4 whole entry): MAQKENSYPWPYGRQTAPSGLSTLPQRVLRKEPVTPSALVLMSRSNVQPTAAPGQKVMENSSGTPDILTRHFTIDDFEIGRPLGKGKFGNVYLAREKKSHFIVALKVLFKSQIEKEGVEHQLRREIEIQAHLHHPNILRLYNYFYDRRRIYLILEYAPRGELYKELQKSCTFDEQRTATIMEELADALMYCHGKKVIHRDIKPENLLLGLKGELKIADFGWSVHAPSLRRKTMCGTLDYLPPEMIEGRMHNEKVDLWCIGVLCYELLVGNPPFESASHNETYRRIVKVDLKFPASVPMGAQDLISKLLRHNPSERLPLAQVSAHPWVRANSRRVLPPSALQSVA
The subject of the next test is NCI-H460. Description: Cytotoxicity against human NCI-H460 cells assessed as centrosome amplification and declustering by measuring multiple foci by immunostaining analysis. It counts as functional, cell-based. Particulars: time 72.0 hrs.
In another test the test system is MDA-MB-231. Description: Cytotoxicity against human MDA-MB-231 cells assessed as cell viability measured after 72 hrs by MTT assay. It counts as functional, cell-based. Particulars: MDA-MB-231, 72 h.
Test [16] has as its system HRPE. Description: Induction of cell cycle arrest in human RPE cells expressing MYC-Bcl2 assessed as foci in colocalized Aurora kinase A at 4 uM for 6 hrs by immunostaining analysis. It counts as functional, cell-based.
For test [17], the target named is T1, Aurora kinase A (Homo sapiens) (UniProt O14965).
T1 sequence (whole entry): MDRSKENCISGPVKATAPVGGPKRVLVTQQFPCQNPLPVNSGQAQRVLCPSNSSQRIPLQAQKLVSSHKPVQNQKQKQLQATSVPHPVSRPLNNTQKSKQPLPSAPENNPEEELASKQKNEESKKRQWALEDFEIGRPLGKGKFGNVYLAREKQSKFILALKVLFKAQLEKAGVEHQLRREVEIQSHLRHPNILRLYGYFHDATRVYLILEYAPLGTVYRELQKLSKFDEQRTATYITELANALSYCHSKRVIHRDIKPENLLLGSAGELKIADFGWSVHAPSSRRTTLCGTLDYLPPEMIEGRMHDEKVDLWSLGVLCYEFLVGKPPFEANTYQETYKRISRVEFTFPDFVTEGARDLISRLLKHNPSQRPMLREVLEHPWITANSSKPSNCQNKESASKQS
Description: Inhibition of AURKA (unknown origin) in HRPE cells overexpressing MYC/Bcl2 assessed as inhibition of autophosphorylation of threonine 288 at 20 uM measured for 6 hrs by immunostaining based fluorescence microscopic analysis. It counts as cell-based.

Active and inactive are the calls of the source. The calls are words filed in the database; no cut-off is given here.

`CCN(CCCOc1ccc2c(Nc3cc(CC(=O)Nc4cccc(F)c4)[nH]n3)ncnc2c1)CCOP(=O)(O)O`: the outcome in the test with HRPE [1] was inactive.

On to `COc1cc(Nc2ncc3c(n2)-c2ccc(Cl)cc2C(c2c(F)cccc2OC)=NC3)ccc1C(=O)O`, for which, in the test on HRPE [2], the result was Active.

For `COc1cc2c(cc1O)[C@@H]1Cc3ccc(O)c(OC)c3CN1CC2`, the result in the test on HRPE [3] was inactive.

`COc1cc2c(cc1OC)[C@@H]1Cc3ccc(OC)c(OC)c3CN1CC2`: the outcome in the test on HRPE [3] was inactive.

Turning to `COc1cc2c(cc1O)[C@@H]1Cc3ccc(OC)c(O)c3CN1CC2` [SCOULERINE], the IC50 was determined as 4.07 µM in test [4]; 5.48 µM in test [5]; 2.54 µM with NCI-H23; 6.74 µM in the test with HeLa; 4.62 µM in test [9]; 4.24 µM in the test on SW480. For the same compound, the IC50 in test [12] is 6.81 µM; in the test on A549, 26.3 µM; with MDA-MB-231 it was 7.32 µM. Besides, the result in the test with HRPE [6], in the test with HRPE [2] and in the test with HRPE [3] was inactive. Further, the result with HRPE [7], with HRPE [11], with HRPE [13], with HRPE [1], in the test with NCI-H460 and in the test with HRPE [16] was Active. For the same compound, the Activity result in the test on HRPE [8] was “Dose-Dependent Effect”. Besides, the EC50 in test [10] was 3.6 µM; in test [14], 3.54 µM. In addition, the inhibition result in [15] and in test [17] was “Active” throughout.
